The NIST ThermoML archive (doi:10.1021/je8009418)

Conditions: Liquid; for speed of sound: Pulse-echo method; for mass density: Vibrating tube method

CCCCCO [pentan-1-ol]
Conditions	mass density [kg/m3]	speed of sound [m/s]
292.81 K, 100 kPa	–	1293.9
292.88 K, 76010 kPa	–	1611.2
292.88 K, 91210 kPa	–	1660
292.88 K, 101330 kPa	–	1691.4
292.91 K, 45590 kPa	–	1501.6
292.91 K, 60810 kPa	–	1558.3
292.95 K, 15200 kPa	–	1371.5
292.96 K, 30400 kPa	–	1439.7
293.15 K, 101.33 kPa	814.5	–
297.93 K, 30400 kPa	–	1424.8
297.93 K, 45600 kPa	–	1487.1
297.93 K, 60800 kPa	–	1544.3
297.93 K, 75990 kPa	–	1597.6
297.93 K, 91190 kPa	–	1647.3
297.93 K, 101340 kPa	–	1678.7
297.94 K, 15200 kPa	–	1355.5
298.15 K, 101.33 kPa	810.84	1275.2
298.18 K, 100 kPa	–	1275.1
303.05 K, 45600 kPa	–	1472.8
303.06 K, 15200 kPa	–	1339.3
303.06 K, 30410 kPa	–	1409.7
303.06 K, 91180 kPa	–	1634.6
303.06 K, 101330 kPa	–	1666.3
303.1 K, 60790 kPa	–	1530.6
303.1 K, 76000 kPa	–	1584.1
303.15 K, 100 kPa	–	1258
303.15 K, 101.33 kPa	807.155	–
308.04 K, 45600 kPa	–	1459
308.05 K, 76000 kPa	–	1571.6
308.06 K, 60800 kPa	–	1517.5
308.06 K, 91210 kPa	–	1622.5
308.06 K, 101330 kPa	–	1654.2
308.08 K, 15200 kPa	–	1323.5
308.08 K, 30400 kPa	–	1394.8
308.13 K, 100 kPa	–	1240.9
308.15 K, 101.33 kPa	803.442	–
313.02 K, 101340 kPa	–	1642.9
313.03 K, 30400 kPa	–	1380.7
313.03 K, 60790 kPa	–	1504.8
313.03 K, 75990 kPa	–	1559.2
313.03 K, 91190 kPa	–	1610.7
313.04 K, 15210 kPa	–	1308.5
313.05 K, 45600 kPa	–	1445.5
313.11 K, 100 kPa	–	1224.1
313.15 K, 101.33 kPa	799.705	–
318.15 K, 101.33 kPa	795.912	–
318.49 K, 76000 kPa	–	1546.4
318.49 K, 91200 kPa	–	1598.1
318.5 K, 60800 kPa	–	1491.2
318.51 K, 45590 kPa	–	1431.3
318.51 K, 101330 kPa	–	1630.8
318.52 K, 15200 kPa	–	1292
318.52 K, 30400 kPa	–	1365.4
318.68 K, 100 kPa	–	1205.5

CCC(C)(C)O [2-methylbutan-2-ol]
Conditions	mass density [kg/m3]	speed of sound [m/s]
292.86 K, 15200 kPa	–	1290.8
292.86 K, 30390 kPa	–	1369.7
292.86 K, 45590 kPa	–	1440.9
292.86 K, 60790 kPa	–	1506
292.86 K, 75990 kPa	–	1566.1
292.86 K, 91180 kPa	–	1623.1
292.86 K, 101320 kPa	–	1658.5
292.9 K, 100 kPa	–	1196.7
293.15 K, 101.33 kPa	808.891	–
298.15 K, 101.33 kPa	804.3	1177.8
298.15 K, 15200 kPa	–	1274.2
298.15 K, 30390 kPa	–	1354.4
298.15 K, 45590 kPa	–	1426.3
298.15 K, 60790 kPa	–	1491.5
298.15 K, 75990 kPa	–	1551.9
298.15 K, 91180 kPa	–	1608.7
298.15 K, 101320 kPa	–	1644.4
298.17 K, 100 kPa	–	1177.8
303.13 K, 30390 kPa	–	1339.7
303.13 K, 45590 kPa	–	1412.3
303.13 K, 91180 kPa	–	1595.6
303.13 K, 101320 kPa	–	1631.4
303.14 K, 15200 kPa	–	1258.5
303.14 K, 60790 kPa	–	1478.1
303.14 K, 75990 kPa	–	1538.6
303.15 K, 100 kPa	–	1159.8
303.16 K, 101.33 kPa	799.66	–
308.12 K, 100 kPa	–	1141.9
308.12 K, 15200 kPa	–	1242.6
308.12 K, 30390 kPa	–	1324.9
308.12 K, 45590 kPa	–	1398
308.12 K, 60790 kPa	–	1464.7
308.12 K, 75990 kPa	–	1525.6
308.12 K, 91180 kPa	–	1582.6
308.12 K, 101320 kPa	–	1619
308.16 K, 101.33 kPa	794.954	–
313.1 K, 100 kPa	–	1124
313.1 K, 45590 kPa	–	1384.1
313.1 K, 60790 kPa	–	1451.2
313.1 K, 75990 kPa	–	1512.8
313.1 K, 91180 kPa	–	1569.9
313.11 K, 15200 kPa	–	1226.6
313.11 K, 30390 kPa	–	1310.1
313.11 K, 101320 kPa	–	1606.2
313.15 K, 101.33 kPa	790.176	–
318.15 K, 101.33 kPa	785.312	–
318.18 K, 15200 kPa	–	1210.4
318.18 K, 60790 kPa	–	1437.9
318.18 K, 75990 kPa	–	1499.8
318.18 K, 101320 kPa	–	1593.9
318.19 K, 30390 kPa	–	1295.2
318.19 K, 45590 kPa	–	1370.1
318.19 K, 91180 kPa	–	1557.2
318.29 K, 100 kPa	–	1105.3

OC1CCCC1 [cyclopentanol]
Conditions	mass density [kg/m3]	speed of sound [m/s]
292.85 K, 15200 kPa	–	1519.5
292.85 K, 30390 kPa	–	1576.3
292.85 K, 45590 kPa	–	1629.1
292.85 K, 60790 kPa	–	1677.8
292.85 K, 75990 kPa	–	1723.9
292.85 K, 91180 kPa	–	1767.2
292.85 K, 101320 kPa	–	1795
292.86 K, 100 kPa	–	1454.4
293.15 K, 101.33 kPa	946.792	–
298.14 K, 15200 kPa	–	1500.4
298.14 K, 30390 kPa	–	1557.8
298.14 K, 45590 kPa	–	1611.5
298.14 K, 60790 kPa	–	1661
298.14 K, 75990 kPa	–	1707.2
298.14 K, 91180 kPa	–	1751.2
298.14 K, 101320 kPa	–	1779.3
298.15 K, 101.33 kPa	942.856	1435.1
298.17 K, 100 kPa	–	1435
303.12 K, 15200 kPa	–	1482.2
303.12 K, 30390 kPa	–	1540.4
303.12 K, 45590 kPa	–	1595.1
303.12 K, 60790 kPa	–	1645.6
303.12 K, 75990 kPa	–	1692.6
303.12 K, 91180 kPa	–	1737.2
303.12 K, 101320 kPa	–	1765.5
303.15 K, 100 kPa	–	1416.9
303.16 K, 101.33 kPa	938.874	–
308.11 K, 15200 kPa	–	1464.8
308.11 K, 30390 kPa	–	1524.5
308.11 K, 45590 kPa	–	1579.4
308.11 K, 60790 kPa	–	1630.6
308.11 K, 75990 kPa	–	1678
308.11 K, 101320 kPa	–	1751.6
308.12 K, 91180 kPa	–	1723
308.13 K, 100 kPa	–	1398.7
308.15 K, 101.33 kPa	934.843	–
313.09 K, 15200 kPa	–	1447.6
313.09 K, 30390 kPa	–	1508.3
313.09 K, 45590 kPa	–	1564
313.09 K, 60790 kPa	–	1616.1
313.09 K, 75990 kPa	–	1664.1
313.09 K, 91180 kPa	–	1709.5
313.09 K, 101320 kPa	–	1738.6
313.12 K, 100 kPa	–	1380.6
313.15 K, 101.33 kPa	930.754	–
318.15 K, 101.33 kPa	926.613	–
318.19 K, 15200 kPa	–	1430.8
318.19 K, 45590 kPa	–	1548.6
318.19 K, 60790 kPa	–	1601.4
318.19 K, 75990 kPa	–	1650.3
318.19 K, 101320 kPa	–	1725.3
318.2 K, 30390 kPa	–	1492.4
318.2 K, 91180 kPa	–	1695.8
318.29 K, 100 kPa	–	1361.8
